Data: patent US20140242099A1 (Synta Pharmaceuticals Corp., priority 2011, published 2014)

Columns and labels:
[1] = tested on: IL-2 production in Jurkat T-cells; assay: Inhibition of IL-2 production, Jurkat/PHA/1% FBS, ELISA; assay type: cell-based; details: Homo sapiens, read-out: IL-2 inhibition Jurkat/PHA/1% FBS IC50 (nM), PHA 2.5 μg/mL, 20 hours
Experimental: JurkaT-cells were placed in a 96 well plate (0.5 million cells per well in 1% FBS medium), and then a test compound of this invention was added at different concentrations. After 10 minutes, the cells were activated with PHA (final concentration 2.5 μg/mL) and incubated for 20 hours at 37° C. under 5% CO2. The final volume was 200 μL. Following incubation, the cells were centrifuged, and the supernatants collected and stored at −70° C. prior to assaying for IL-2 production. A commercial ELISA kit (IL-2 Eli-pair, Diaclone Research, Besancon, France) was used to detect production of IL-2, from which dose response curves were obtained. The IC50 value was calculated as the concentration at which 50% of maximum IL-2 production after stimulation was inhibited versus a non-stimulation control.

[2] = biological target: T1, ICRAC current (CRAC ion channels), RBL-2H3 cells (Rattus norvegicus, UniProt Q5M848); assay: Automated patch clamp (Qpatch) inhibition of ICRAC current in RBL-2H3 cells; assay type: cell-based; details: compound at 100 nM, method calculates % ICRAC inhibition
T1 construct: endogenous in cells; host or cells: RBL-2H3 (rat basophilic leukemia cells)
Experimental: Automated patch clamp experiments are conducted with the QPatch 16 (Sophion Bioscience, Ballerup, Denmark) at room temperature (21-25° C.). Immediately following the establishment of giga-seal whole-cell configuration, the cells membrane potential is clamped at 0 mV. Voltage ramps of 50 ms duration spanning the voltage range of −100 to +100 mV are then stimulated at a rate of 0.33 Hz. Currents are filtered at 2.9 kHz and digitized at 200 μs intervals. Capacitive currents and series resistance are determined and corrected before each voltage ramp using the automatic capacitance compensation.
RBL-2H3 are grown in DMEM media supplemented with 10% fetal bovine serum, penicillin 100 U/ml and streptomycin […] in an atmosphere of 95% air/5% CO2. Cells are grown to confluence in 175 cm^2 tissue culture flask. On the experimental day, cells harvested with 0.25% trypsin/0.02% EDTA and resuspended in extracellular solution at density of 5×10^6 cells/ml.
The intracellular solution contains Cs-Glutamate 90 mM; NaCl 8 mM; MgCl2 3 mM; CsCl 20 mM; CsBAPTA 20 mM; HEPES 10 mM; InsP3 0.02 mM; pH=7.2 adjusted with CsOH.
The extracellular solution contains NMDGCl 120 mM; KCl 5.4 mM; CsCl 10 mM; CaCl2 10 mM; MgCl2 1 mM; HEPES 10 mM; Glucose 5.5 mM; at pH=7.4 adjusted with HCl.
ICRAC currents are measured using 50 msec voltage ramps between −100 mV to +100 mV. The voltage ramps are stimulated every 3 seconds for at least 570 seconds. The maximum ICRAC current is allowed to develop for at least 135 seconds. Compounds diluted in extracellular solutions are then applied twice, 30 seconds apart. After incubating the cells with compound for 435 seconds, a reference solution is applied at the end of the experiment. The reference solution is a Ca^2+ free extracellular solution.
Off-line analysis with the Qpatch software is used to plot the current value at −80 mV for each ramp trace against time. The resulting current versus time data is then exported into a Microsoft Excel spreadsheet. The ICRAC membrane currents are separated from the cells basal background currents by either subtracting out the average membrane current values during the first 1-3 traces, or the average membrane current values obtained with the reference solution at the end of the experiment. The % ICRAC inhibition in each cell is calculated by comparing the amount of current just prior to the first compound addition to the amount of current after the cells has been perfused with the compound for at least 400 seconds.

T1 sequence (Q5M848 whole entry): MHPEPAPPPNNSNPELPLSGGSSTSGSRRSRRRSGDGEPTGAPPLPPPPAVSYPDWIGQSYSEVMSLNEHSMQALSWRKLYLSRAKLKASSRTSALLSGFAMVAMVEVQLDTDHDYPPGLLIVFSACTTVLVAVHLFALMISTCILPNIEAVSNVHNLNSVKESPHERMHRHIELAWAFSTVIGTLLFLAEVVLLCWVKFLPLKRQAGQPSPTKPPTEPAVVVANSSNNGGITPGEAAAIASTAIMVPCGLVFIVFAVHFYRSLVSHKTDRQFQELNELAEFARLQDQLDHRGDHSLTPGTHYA

## Cc1ccc(-c2nc(-c3ccc(C(=O)Nc4c(F)cccc4F)cc3)c(C)s2)cn1 [Compound 1]
[1]
  IC50: 27 nM
[2]
  inhibition at 0.1 µM: 80%

## Cc1cc(C)c(NC(=O)c2ccc(-c3cc(-c4nnn(C)n4)ccc3Cl)cc2)cn1 [Compound 2, 2′-chloro-N-(4,6-dimethylpyridin-3-yl)-5′-(2-methyl-2H-tetrazol-5-yl)-[1,1′-biphenyl]-4-carboxamide]
[1]
  IC50: 33 nM
[2]
  inhibition at 0.1 µM: 61%

## Cc1cc(C)c(NC(=O)c2ccc(-c3cc(-c4nnn(C)n4)ccc3C)cc2)cn1 [Compound 3, N-(4,6-dimethylpyridin-3-yl)-2′-methyl-5′-(2-methyl-2H-tetrazol-5-yl)-[1,1′-biphenyl]-4-carboxamide]
[1]
  IC50: 46 nM
[2]
  inhibition at 0.1 µM: 36%

## Cc1ccncc1C(=O)Nc1ccc(-c2cc(-c3nnn(C)n3)ccc2Cl)cn1 [Compound 4, N-(5-(2-chloro-5-(2-methyl-2H-tetrazol-5-yl)phenyl)pyridin-2-yl)-4-methylnicotinamide]
[2]
  inhibition at 0.1 µM: 36%

## CCc1sc(-c2cnc(C)cn2)nc1-c1ccc(C(=O)Nc2cnc(C)cc2C)cc1 [Compound 5]
[1]
  IC50: 32 nM
[2]
  inhibition at 0.1 µM: 40%

## CCc1sc(-c2cc(C)on2)nc1-c1ccc(C(=O)Nc2cncnc2C)cc1 [Compound 6]
[1]
  IC50: 38 nM
[2]
  inhibition at 0.1 µM: 93%

## Cn1cc(-c2ccc(Cl)c(-c3cnc(NC(=O)c4cccc(F)c4F)cn3)c2)cn1 [Compound 7, N-(5-(2-chloro-5-(1-methyl-1H-pyrazol-4-yl)phenyl)pyrazin-2-yl)-2,3-difluorobenzamide]
[1]
  IC50: 10 nM
[2]
  inhibition at 0.1 µM: 98%

## Cn1cc(-c2ccc(Cl)c(-c3cnc(NC(=O)c4ccc(F)cc4F)cn3)c2)cn1 [Compound 8, N-(5-(2-chloro-5-(1-methyl-1H-pyrazol-4-yl)phenyl)pyrazin-2-yl)-2,4-difluorobenzamide]
[1]
  IC50: 14 nM
[2]
  inhibition at 0.1 µM: 82%

## CCc1sc(-c2cc(C)on2)nc1-c1ccc(NC(=O)c2cncc(Cl)c2C)nc1 [Compound 9]
[1]
  IC50: 10 nM
[2]
  inhibition at 0.1 µM: 73%
